Values quoted from earlier work, collected in patent publication US12357627B2, “Pharmaceutical compositions of cabozantinib” (AZURITY PHARMACEUTICALS, INC., priority 2021, dated 2025).
≈ marks a conversion by molar mass, not a printed value. Where two headings read alike, the source gives them in different places.

Legend:
[1] = high-fat meal relative to fasted conditions, healthy subjects, single oral dose
[2] = mass balance study

increase of AUC [1]: 57%
increase of Cmax [1]: 41%
administered cabozantinib renally excreted [2]: at least 27%
solubility (at pH>4): practically insoluble
solubility (in 0.01N HCl): 110 µg/mL (≈ 219 µM)
solubility (in water): practically insoluble
Compound: COc1cc2nccc(Oc3ccc(NC(=O)C4(C(=O)Nc5ccc(F)cc5)CC4)cc3)c2cc1OC [Cabozantinib]
